Literature values in Sander's compilation of Henry's law constants (doi:10.1016/s0016-7037(99)00330-0).

experiment: Henry solubility constant Hcp at 298.15 K (mol/(m3 Pa)); conditions: reference: Plyasunov and Shock (2000); cited value

Compound | Henry solubility constant Hcp
CC(C)C(C)C [2,3-dimethylbutane] | 7.6e-06
CCC#CC(C)C [2-methyl-3-hexyne] | 0.00022
CCC#CCC [3-hexyne] | 0.00055
CCC(C)c1ccccc1 (configuration not stated) [(1-methylpropyl)-benzene] | 0.00053
CCC(C)CC [3-methylpentane] | 5.9e-06
CCCCC(C)CC (configuration not stated) [3-methylheptane] | 2.7e-06
Cc1ccccc1C(C)C [1-methyl-2-(1-methylethyl)-benzene] | 0.0016
